This passage reports IC50 and MIC results from paper PMC2666046 (Bioorganic & medicinal chemistry letters, 2009).

For assay [1], the target named is B. anthracis NADS (Bacillus anthracis, UniProt Q81RP3). Kind of assay: biochemical.
The test system of assay [2] is Bacillus anthracis Sterne. Kind of assay: microbe, parasite or virus in culture. It counts as cell-based. As to conditions: read-out: B.a. MIC.

≈ marks a conversion by molar mass, not a printed value. Where two headings read alike, the source gives them in different places.

Sequence of B. anthracis NADS (Q81RP3 whole entry, looked up): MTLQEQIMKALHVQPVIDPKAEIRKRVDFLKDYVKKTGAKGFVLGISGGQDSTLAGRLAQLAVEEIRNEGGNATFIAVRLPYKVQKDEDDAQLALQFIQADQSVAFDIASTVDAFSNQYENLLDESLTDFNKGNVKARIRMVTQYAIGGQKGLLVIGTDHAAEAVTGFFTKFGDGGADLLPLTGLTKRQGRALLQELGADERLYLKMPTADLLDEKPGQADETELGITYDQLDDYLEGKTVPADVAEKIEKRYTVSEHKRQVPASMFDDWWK

`O=[N+]([O-])c1ccc(-c2cnc(N/N=C/c3cccc([N+](=O)[O-])c3)nc2)cc1` [Compound 5591]: in assay [1], half-maximal inhibition (IC50) required 160 µM.

Regarding `CCc1ccc(S(=O)(=O)Nc2c([N+](=O)[O-])ccc3ccccc23)cc1` [Compound 5599], the MIC in assay [2] was found to be 3.75 µM (≈ 1.34 µg/mL).

On to `O=C(Cn1cc(/C=C/c2[nH]c(=O)[nH]c(=O)c2[N+](=O)[O-])c2ccccc21)Nc1ccc(F)cc1` [Compound 5615], for which the half-inhibitory concentration (IC50) in assay [1] and in assay [1] (read-out: NADs IC50) was 55.4 µM in each case.

For `NC(=O)c1ccc(/N=C/c2cc([N+](=O)[O-])ccc2Cl)cc1` [Compound 5679], in assay [1], inhibition was half-maximal at 262 µM (IC50).

The compound `O=C(Nc1cccc(/N=C/c2cc([N+](=O)[O-])ccc2O)c1)c1ccc(Cl)cc1Cl` [Compound 5691] displayed an IC50 in assay [1] of 106 µM.

In the case of `COc1ccc(NC(=O)Nc2cccc(NC(=O)Nc3ccc(OC)cc3)c2F)cc1` [Compound 5707], 253 µM corresponded to half-maximal inhibition in assay [1] (IC50).

`N/C(=N\OC(=O)c1ccc(Cl)c(Cl)c1)c1cccc(CSc2ccccn2)c1` [Compound 5775] had an IC50 in assay [1] of 290 µM.

As usually defined, the IC50 is the concentration that inhibits the measured activity by half.
